Measured values taken from patent publication US10988524B2, “Modified relaxin B chain peptides and their therapeutic use” (priority 2018, dated 2021).
Where two headings read alike, the source gives them in different places. Each block holds one compound with its values, some of them ahead of it. Non-standard residues stand in square brackets, D forms with d. Residues, ends and D or L forms follow the SMILES beside them. Phe(4-F) = N[C@@H](Cc1ccc(F)cc1)C(=O)O; Nle = CCCC[C@H](N)C(=O)O; Aib = CC(C)(N)C(=O)O

How the values were obtained:
[1] = Solubility testing of peptides in buffer; format: physicochemical
[2] = Stability in human plasma; format: in vitro ADME; conditions: 37° C.; for Human Plasma stability % remaining, T = 0: 5 μM; for remaining at 1 h, 5 μM / remaining at 4 h, 5 μM: human plasma (sodium or lithium heparin)
Protocol: (§1) Prior to the testing of stability in plasma of a peptide batch, its purity (HPLC-UV) was determined.
(§2) Rat and Human plasma: anti-coagulant sodium or lithium heparin.
(§3) 100 μM solution of study compound in 50 mM Phosphate buffer pH 7.4.
(§4) 950 μL plasma is pre-incubated for 5 min at 37° C. 50 μL of compound stock solution is added. Final compound concentration=5 μM. Vortex and transfer 1504, plasma into an Eppendorf for each time point. The time points 0-1 and −4 h are carried out in duplicate for each species.
(§5) After incubation extract 1504, plasma with 6004, Acetonitrile containing with 1% TFA. Vortex and centrifuge 10 min at 14600 rpm. Dry 2004, supernatant under N2. Reconstitute sample in 200 μL of H2O/CH3CN 98/2+0.1% FA+50 ng/ml Labetalol and analyze using the analytical system used in solubility and stability studies.
(§6) For determination of the amount of the remaining peptide, the peak areas of the target compound at t0 and each time point […] were compared, resulting in “% remaining peptide”, following the equation
(§7) % remaining peptide=[(peak area peptide time)×100]/peak area peptide t0. The stability is expressed as “% remaining peptide”.

[3] = Stability in rat plasma; format: in vitro ADME; conditions: 37° C.; for Rat plasma stability % remaining, T = 0: 5 μM; for remaining at 1 h, 5 μM / remaining at 4 h, 5 μM: rat plasma (sodium or lithium heparin)
Protocol: as §1, §2, §3, §4, §5, §6, §7

[4] = molecular target: T1, RXFP1 (Homo sapiens, UniProt Q9HBX9); assay: OVCAR5 cAMP assay (RXFP1 agonist activity, HTRF); conditions: for Emax: OVCAR-5, read-out: cAMP assay in OVCAR 5 cells Emax, maximal intracellular cAMP relative to H2-relaxin in the same test occasion; for EC50: cAMP assay in OVCAR 5 cells EC50 (nM), OVCAR5 cells expressing endogenous RXFP1, cAMP by HTRF, 30 min at 37° C., 1 mM IBMX
T1 sequence (Q9HBX9 1-757): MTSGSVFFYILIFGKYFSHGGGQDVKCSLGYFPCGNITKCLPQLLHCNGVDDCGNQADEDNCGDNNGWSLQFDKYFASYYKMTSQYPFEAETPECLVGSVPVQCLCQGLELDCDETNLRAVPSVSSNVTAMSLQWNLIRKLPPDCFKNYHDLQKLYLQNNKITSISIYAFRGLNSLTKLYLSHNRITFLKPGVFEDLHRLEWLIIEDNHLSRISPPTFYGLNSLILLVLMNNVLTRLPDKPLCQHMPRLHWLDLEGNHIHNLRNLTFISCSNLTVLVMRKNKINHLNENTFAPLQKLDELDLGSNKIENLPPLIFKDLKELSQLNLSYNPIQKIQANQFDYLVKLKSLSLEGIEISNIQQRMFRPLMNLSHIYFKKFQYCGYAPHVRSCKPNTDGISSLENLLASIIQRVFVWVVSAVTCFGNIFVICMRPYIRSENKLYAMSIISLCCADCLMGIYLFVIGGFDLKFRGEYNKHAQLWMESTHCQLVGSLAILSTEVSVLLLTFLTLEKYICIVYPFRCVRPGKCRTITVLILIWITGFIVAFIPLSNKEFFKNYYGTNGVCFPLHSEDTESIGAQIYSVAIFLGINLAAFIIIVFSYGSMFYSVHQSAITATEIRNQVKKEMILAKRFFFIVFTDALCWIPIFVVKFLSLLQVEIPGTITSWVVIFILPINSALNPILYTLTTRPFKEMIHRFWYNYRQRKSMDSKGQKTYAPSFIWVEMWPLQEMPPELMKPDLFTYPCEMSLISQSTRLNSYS

[5] = Phosphate buffer 50 mM pH 7.4, target solubility 2.0 mg/ml, ~19 h, read-out: Solubility phosphate buffer pH 7.4

solubility ([1]; Acetate buffer 50 mM pH 4.5, target solubility 3.0 mg/ml, ~19 h, read-out: Solubility Acetate buffer pH 4.5): ≥ 3300 µg/mL | solubility ([1]; Phosphate buffer 50 mM pH 7.4, target solubility 3.0 mg/ml, ~19 h, read-out: Solubility phosphate buffer pH 7.4): ≥ 2900 µg/mL | Human Plasma stability % remaining, T = 0 [2]: 100% | remaining at 1 h, 5 μM [2]: 85% | remaining at 4 h, 5 μM [2]: 64% | Rat plasma stability % remaining, T = 0 [3]: 100% | remaining at 1 h, 5 μM [3]: 78% | remaining at 4 h, 5 μM [3]: 55% | Emax [4]: 97%
SMILES: CCCC[C@H](NC(=O)CNC(=O)[C@H](CCC(=O)O)NC(=O)C(C)(C)NC(=O)C(C)(C)NC(=O)[C@@H](NC(=O)[C@H](CCC(N)=O)NC(=O)[C@H](C)NC(=O)[C@H](CCCNC(=N)N)NC(=O)[C@@H](NC(=O)[C@H](CCCCN)NC(=O)[C@H](CCC(=O)O)NC(=O)[C@H](CCCNC(=N)N)NC(=O)CNC(=O)[C@H](CCC(=O)O)NC(=O)[C@H](CC(C)C)NC(C)=O)C(C)C)[C@@H](C)CC)C(=O)N[C@@H](CO)C(=O)N[C@H](C(=O)N[C@@H](Cc1c[nH]c2ccccc12)C(=O)N[C@@H](CO)C(=O)NC(C)(C)C(=O)N[C@@H](CCCNC(=N)N)C(=O)N[C@@H](CCCCN)C(=O)N[C@@H](CCCCN)C(N)=O)[C@@H](C)O [compound 3] (Ac-LEGREKVRAQI[Aib][Aib]EG[Nle]STWS[Aib]RKK-NH2)

solubility ([1]; acetate buffer, pH 4.5, read-out: Solubility Acetate buffer pH 4.5): ≥ 6100 µg/mL | solubility ([1]; phosphate buffer, pH 7.4, read-out: Solubility phosphate buffer pH 7.4): ≥ 5800 µg/mL | Human Plasma stability % remaining, T = 0 [2]: 100% | remaining at 1 h, 5 μM [2]: 95% | remaining at 4 h, 5 μM [2]: 93% | Rat plasma stability % remaining, T = 0 [3]: 100% | remaining at 1 h, 5 μM [3]: 91% | remaining at 4 h, 5 μM [3]: 101% | Emax [4]: 99%
SMILES: CC[C@H](C)[C@H](NC(=O)[C@H](CCC(N)=O)NC(=O)[C@H](C)NC(=O)[C@H](CCCNC(=N)N)NC(=O)[C@@H](NC(=O)[C@H](CCCCN)NC(=O)[C@H](CCC(=O)O)NC(=O)[C@H](CCCNC(=N)N)NC(=O)CNC(=O)[C@H](CCC(=O)O)NC(=O)[C@H](CC(C)C)NC(C)=O)C(C)C)C(=O)NC(C)(C)C(=O)NC(C)(C)C(=O)N[C@@H](CCC(=O)O)C(=O)NCC(=O)N[C@@H](CCSC)C(=O)N[C@@H](CO)C(=O)N[C@H](C(=O)N[C@@H](Cc1c[nH]c2ccccc12)C(=O)N[C@@H](CO)C(=O)NC(C)(C)C(=O)N[C@@H](CCCNC(=N)N)C(=O)N[C@@H](CCCCN)C(=O)N[C@@H](CCCCN)C(N)=O)[C@@H](C)O [compound 4] (Ac-LEGREKVRAQI[Aib][Aib]EGMSTWS[Aib]RKK-NH2)

solubility [1, 5]: ≥ 2300 µg/mL | Emax [4]: 94% | EC50 [4]: ≤ 10 nM
SMILES: CCCC[C@H](NC(=O)CNC(=O)[C@H](CCC(=O)O)NC(=O)C(C)(C)NC(=O)C(C)(C)NC(=O)[C@@H](NC(=O)[C@H](CCC(N)=O)NC(=O)[C@H](C)NC(=O)[C@H](CCCNC(=N)N)NC(=O)[C@@H](NC(=O)[C@H](CCCCN)NC(=O)[C@H](CCC(=O)O)NC(=O)[C@H](CCCNC(=N)N)NC(=O)CNC(=O)[C@H](CCC(=O)O)NC(=O)[C@H](CC(C)C)NC(C)=O)C(C)C)[C@@H](C)CC)C(=O)N[C@@H](CO)C(=O)N[C@@H](CCC(N)=O)C(=O)N[C@@H](Cc1c[nH]c2ccccc12)C(=O)N[C@@H](CO)C(=O)NC(C)(C)C(=O)N[C@@H](CCCNC(=N)N)C(=O)N[C@@H](CCCNC(=N)N)C(=O)N[C@@H](CCCNC(=N)N)C(N)=O [compound 52] (Ac-LEGREKVRAQI[Aib][Aib]EG[Nle]SQWS[Aib]RRR-NH2)

solubility [1, 5]: ≥ 2100 µg/mL | Emax [4]: 75%
SMILES: CCCC[C@H](NC(=O)CNC(=O)[C@H](CCC(=O)O)NC(=O)C(C)(C)NC(=O)C(C)(C)NC(=O)[C@@H](NC(=O)[C@H](CCC(N)=O)NC(=O)[C@H](C)NC(=O)[C@H](CCCNC(=N)N)NC(=O)[C@@H](NC(=O)[C@H](CCCCN)NC(=O)[C@H](CCC(=O)O)NC(=O)[C@H](CCCNC(=N)N)NC(=O)CNC(=O)[C@H](CCC(=O)O)NC(=O)[C@H](CC(C)C)NC(C)=O)C(C)C)[C@@H](C)CC)C(=O)N[C@@H](CO)C(=O)N[C@H](C(=O)N[C@@H](Cc1ccc(O)cc1)C(=O)N[C@@H](CO)C(=O)NC(C)(C)C(=O)N[C@@H](CCCNC(=N)N)C(=O)N[C@@H](CCCCN)C(=O)N[C@@H](CCCCN)C(N)=O)[C@@H](C)O [compound 53] (Ac-LEGREKVRAQI[Aib][Aib]EG[Nle]STYS[Aib]RKK-NH2)

solubility [1, 5]: ≥ 2400 µg/mL | cAMP assay in OVCAR 5 cells Emax ([4]; maximal intracellular cAMP relative to H2-relaxin in the same test occasion): 96%
SMILES: CC[C@H](C)[C@H](NC(=O)[C@H](CCC(N)=O)NC(=O)[C@H](C)NC(=O)[C@H](CCCNC(=N)N)NC(=O)[C@@H](NC(=O)[C@H](CCCCN)NC(=O)[C@H](CCC(=O)O)NC(=O)[C@H](CCCNC(=N)N)NC(=O)CNC(=O)[C@H](CCC(=O)O)NC(=O)[C@H](CC(C)C)NC(C)=O)C(C)C)C(=O)NC(C)(C)C(=O)NC(C)(C)C(=O)N[C@@H](CCC(=O)O)C(=O)NCC(=O)N[C@@H](CCC(N)=O)C(=O)N[C@@H](CO)C(=O)N[C@H](C(=O)N[C@@H](Cc1c[nH]c2ccccc12)C(=O)N[C@@H](CO)C(=O)NC(C)(C)C(=O)N[C@@H](CCCNC(=N)N)C(=O)N[C@@H](CCCCN)C(=O)N[C@@H](CCCCN)C(N)=O)[C@@H](C)O [compound 54] (Ac-LEGREKVRAQI[Aib][Aib]EGQSTWS[Aib]RKK-NH2)

solubility [1, 5]: ≥ 2500 µg/mL | Emax [4]: 88% | EC50 [4]: ≤ 5 nM
SMILES: CCCC[C@H](NC(=O)CNC(=O)[C@H](CCC(=O)O)NC(=O)C(C)(C)NC(=O)C(C)(C)NC(=O)[C@@H](NC(=O)[C@H](CCC(N)=O)NC(=O)[C@H](C)NC(=O)[C@H](CCCNC(=N)N)NC(=O)[C@@H](NC(=O)[C@H](CCCCN)NC(=O)[C@H](CCC(=O)O)NC(=O)[C@H](CCCNC(=N)N)NC(=O)CNC(=O)[C@H](CCC(=O)O)NC(=O)[C@H](CC(C)C)NC(C)=O)C(C)C)[C@@H](C)CC)C(=O)N[C@@H](CO)C(=O)N[C@@H](CCCNC(=N)N)C(=O)N[C@@H](Cc1c[nH]c2ccccc12)C(=O)N[C@@H](CO)C(=O)NC(C)(C)C(=O)N[C@@H](CCCNC(=N)N)C(=O)N[C@@H](CCCNC(=N)N)C(=O)N[C@@H](CCCNC(=N)N)C(N)=O [compound 55] (Ac-LEGREKVRAQI[Aib][Aib]EG[Nle]SRWS[Aib]RRR-NH2)

solubility [1, 5]: ≥ 2000 µg/mL | Emax [4]: 93%
SMILES: CC[C@H](C)[C@H](NC(=O)[C@H](CCC(N)=O)NC(=O)[C@H](C)NC(=O)[C@H](CCCNC(=N)N)NC(=O)[C@@H](NC(=O)[C@H](CCCCN)NC(=O)[C@H](CCC(=O)O)NC(=O)[C@H](CCCNC(=N)N)NC(=O)CNC(=O)[C@H](CCC(=O)O)NC(=O)[C@H](CC(C)C)NC(C)=O)C(C)C)C(=O)NC(C)(C)C(=O)NC(C)(C)C(=O)N[C@@H](CCC(=O)O)C(=O)NCC(=O)N[C@@H](CCC(N)=O)C(=O)N[C@@H](CO)C(=O)N[C@H](C(=O)N[C@@H](Cc1ccc(O)cc1)C(=O)N[C@@H](CO)C(=O)NC(C)(C)C(=O)N[C@@H](CCCNC(=N)N)C(=O)N[C@@H](CCCCN)C(=O)N[C@@H](CCCCN)C(N)=O)[C@@H](C)O [compound 58] (Ac-LEGREKVRAQI[Aib][Aib]EGQSTYS[Aib]RKK-NH2)

solubility [1, 5]: ≥ 2400 µg/mL | Emax [4]: 86%
SMILES: CC[C@H](C)[C@H](NC(=O)[C@H](CCC(N)=O)NC(=O)[C@H](C)NC(=O)[C@H](CCCNC(=N)N)NC(=O)[C@@H](NC(=O)[C@H](CCCCN)NC(=O)[C@H](CCC(=O)O)NC(=O)[C@H](CCCNC(=N)N)NC(=O)CNC(=O)[C@H](CCC(=O)O)NC(=O)[C@H](CC(C)C)NC(C)=O)C(C)C)C(=O)NC(C)(C)C(=O)NC(C)(C)C(=O)N[C@@H](CCC(=O)O)C(=O)NCC(=O)N[C@@H](CCC(N)=O)C(=O)N[C@@H](CO)C(=O)N[C@H](C(=O)N[C@@H](Cc1ccc(F)cc1)C(=O)N[C@@H](CO)C(=O)NC(C)(C)C(=O)N[C@@H](CCCNC(=N)N)C(=O)N[C@@H](CCCCN)C(=O)N[C@@H](CCCCN)C(N)=O)[C@@H](C)O [compound 59] (Ac-LEGREKVRAQI[Aib][Aib]EGQST[Phe(4-F)]S[Aib]RKK-NH2)
